Data published in US20230286970A1, “NOVEL OXADIAZOLE-BASED SELECTIVE HDAC6 INHIBITORS” (ITALFARMACO S.P.A., priority 2020, published 2023).

Columns and labels:
recombinant human HDAC6 = recombinant human HDAC6 (Homo sapiens (Human), UniProt Q9UBN7); assay: Enzymatic screening, HDAC6 inhibition (fluorogenic FdL_G substrate); format: biochemical
Procedure, shortened: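 Enzyme was preincubated with compound (8 doses, triplicate, 1% DMSO) in 25 mM Tris-HCl pH 8, 130 mM NaCl, 0.05% Tween-20, 10% glycerol, with BSA. A FLUOR DE LYS-Green substrate was then added, and fluorescence was read after developer plus 2 μM TSA.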

recombinant human HDAC1 = recombinant human HDAC1 (Homo sapiens (Human), UniProt Q13547); assay: Enzymatic screening, HDAC1 inhibition (fluorogenic FdL_G substrate); format: biochemical
Procedure, shortened: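 Recombinant human HDAC1 inhibition was measured fluorometrically using the FLUOR DE LYS-Green (FdL_G) substrate. Compounds at 8 doses (1% DMSO final) in Tris-HCl pH 8 buffer with NaCl, Tween-20 and glycerol were preincubated in triplicate with enzyme and 1 mg/mL BSA, then given substrate. Developer I plus 2 μM TSA was added, and fluorescence read after 25 minutes in the dark.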

recombinant human HDAC6, sequence (Q9UBN7 whole entry): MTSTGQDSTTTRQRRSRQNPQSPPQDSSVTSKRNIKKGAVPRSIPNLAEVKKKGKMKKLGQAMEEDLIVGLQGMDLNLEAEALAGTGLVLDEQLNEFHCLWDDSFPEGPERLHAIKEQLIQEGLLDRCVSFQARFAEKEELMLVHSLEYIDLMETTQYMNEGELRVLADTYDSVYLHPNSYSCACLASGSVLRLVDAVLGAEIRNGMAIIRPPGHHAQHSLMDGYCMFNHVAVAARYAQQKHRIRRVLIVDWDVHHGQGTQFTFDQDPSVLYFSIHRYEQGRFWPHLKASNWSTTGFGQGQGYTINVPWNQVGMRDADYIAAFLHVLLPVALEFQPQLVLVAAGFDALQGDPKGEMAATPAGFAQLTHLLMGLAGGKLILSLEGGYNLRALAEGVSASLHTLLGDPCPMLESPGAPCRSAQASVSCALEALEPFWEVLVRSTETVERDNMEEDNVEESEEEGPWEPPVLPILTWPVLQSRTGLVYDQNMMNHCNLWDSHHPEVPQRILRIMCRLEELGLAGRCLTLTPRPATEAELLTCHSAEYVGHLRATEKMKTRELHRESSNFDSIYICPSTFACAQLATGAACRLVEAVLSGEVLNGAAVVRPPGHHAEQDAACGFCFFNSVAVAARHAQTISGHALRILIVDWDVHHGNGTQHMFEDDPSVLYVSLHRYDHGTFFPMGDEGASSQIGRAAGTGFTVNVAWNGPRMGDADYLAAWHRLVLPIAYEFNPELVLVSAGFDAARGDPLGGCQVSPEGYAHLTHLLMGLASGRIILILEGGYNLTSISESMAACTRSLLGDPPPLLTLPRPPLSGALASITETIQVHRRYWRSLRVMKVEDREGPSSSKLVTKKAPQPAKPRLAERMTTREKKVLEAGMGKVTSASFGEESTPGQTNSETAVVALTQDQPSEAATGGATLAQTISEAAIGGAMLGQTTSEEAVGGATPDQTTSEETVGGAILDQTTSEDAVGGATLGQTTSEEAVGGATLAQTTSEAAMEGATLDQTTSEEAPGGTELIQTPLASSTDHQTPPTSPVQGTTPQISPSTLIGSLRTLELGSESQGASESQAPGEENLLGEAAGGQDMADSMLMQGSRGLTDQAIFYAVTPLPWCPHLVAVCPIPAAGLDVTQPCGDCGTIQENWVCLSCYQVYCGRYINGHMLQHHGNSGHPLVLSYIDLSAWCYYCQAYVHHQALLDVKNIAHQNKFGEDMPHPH
recombinant human HDAC1, sequence (Q13547 whole entry): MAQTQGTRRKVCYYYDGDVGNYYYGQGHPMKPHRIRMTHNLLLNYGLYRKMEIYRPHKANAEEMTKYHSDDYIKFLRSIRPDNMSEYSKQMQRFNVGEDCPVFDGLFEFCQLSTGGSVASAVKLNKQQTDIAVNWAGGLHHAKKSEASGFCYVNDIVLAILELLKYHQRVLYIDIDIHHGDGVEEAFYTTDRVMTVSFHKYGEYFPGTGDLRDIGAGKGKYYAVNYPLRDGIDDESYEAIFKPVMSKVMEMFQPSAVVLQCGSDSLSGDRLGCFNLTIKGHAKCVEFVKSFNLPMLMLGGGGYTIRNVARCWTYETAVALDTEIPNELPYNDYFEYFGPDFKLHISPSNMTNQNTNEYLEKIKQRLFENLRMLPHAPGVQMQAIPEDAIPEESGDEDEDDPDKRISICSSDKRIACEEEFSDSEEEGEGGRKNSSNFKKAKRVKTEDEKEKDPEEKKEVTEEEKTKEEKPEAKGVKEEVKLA

IC50 (recombinant human HDAC6) [nM] | IC50 (recombinant human HDAC1) [nM] | SMILES
106 | > 1e+06 | FC(F)c1nnc(-c2ccc(Cn3nnc(-c4cccc(-c5nc6c([nH]5)CNCC6)c4)n3)c(Cl)c2)o1 [compound 365, 2-[3-chloro-4-[[5-[3-(4,5,6,7-tetrahydro-3H-imidazo[4,5-c]pyridin-2-yl)phenyl]tetrazol-2-yl]methyl]phenyl]-5-(difluoromethyl)-1,3,4-oxadiazole]
14 | > 200000 | CN(C)C(=O)Nc1cc(-c2nnn(Cc3ccc(-c4nnc(C(F)F)o4)cc3)n2)ccc1O [compound 31, 3-(5-(2-(4-(5-(difluoromethyl)-1,3,4-oxadiazol-2-yl)benzyl)-2H-tetrazol-5-yl)-2-hydroxyphenyl)-1,1-dimethylurea]
117 | 1e+06 | CNc1ccc2cc(-c3nnn(Cc4ccc(-c5nnc(C(F)F)o5)c(F)c4)n3)ccc2n1 [compound 403, 6-[2-[[4-[5-(difluoromethyl)-1,3,4-oxadiazol-2-yl]-3-fluorophenyl]methyl]tetrazol-5-yl]-N-methylquinolin-2-amine]
21 | > 30000 | O=C(Nc1cccc(-c2cn(Cc3ccc(-c4nnc(C(F)F)o4)cc3F)nn2)c1)N1CCOCC1 [compound 47, N-(3-(1-(4-(5-(difluoromethyl)-1,3,4-oxadiazol-2-yl)-2-fluorobenzyl)-1H-1,2,3-triazol-4-yl)phenyl)morpholine-4-carboxamide]
63 | > 200000 | FC(F)c1nnc(-c2ccc(Cn3nnc(-c4ccc(N5CCNCC5)nc4)n3)cc2)o1 [compound 148, 2-(difluoromethyl)-5-(4-((5-(6-(piperazin-1-yl)pyridin-3-yl)-2H-tetrazol-2-yl)methyl)phenyl)-1,3,4-oxadiazole]
144 | 1e+06 | CNc1ccc2cc(-c3nnn(Cc4ccc(-c5nnc(C(F)F)o5)cc4F)n3)ccc2n1 [compound 401, 6-[2-[[4-[5-(difluoromethyl)-1,3,4-oxadiazol-2-yl]-2-fluorophenyl]methyl]tetrazol-5-yl]-N-methylquinolin-2-amine]

The remaining lines, values behind:

SMILES | IC50 (recombinant human HDAC6) [nM] | IC50 (recombinant human HDAC1) [nM]
[2H]C([2H])(c1ccc(-c2nnc(C(F)F)o2)cc1)n1cc(-c2cccc(NC(=O)N3CCOCC3)c2)nn1 [compound 352, N-[3-[1-[dideuterio-[4-[5-(difluoromethyl)-1,3,4-oxadiazol-2-yl]phenyl]methyl]triazol-4-yl]phenyl]morpholine-4-carboxamide] | 60 | > 1e+06
CN(Cc1ccncc1)Cc1ccc(-c2nc(Cc3c(F)cc(-c4nnc(C(F)F)o4)cc3F)no2)cc1 [compound 254, N-(4-(3-(4-(5-(difluoromethyl)-1,3,4-oxadiazol-2-yl)-2,6-difluorobenzyl)-1,2,4-oxadiazol-5-yl)benzyl)-N-methyl-1-(pyridin-4-yl)methanamine] | 361 | > 200000
C[C@@H](c1ccc(-c2nnc(C(F)F)o2)cn1)n1cc(-c2ccc(N)nc2)nn1 [Compd. 171, (S)-5-(1-(1-(5-(5-(difluoromethyl)-1,3,4-oxadiazol-2-yl)pyridin-2-yl)ethyl)-1H-1,2,3-triazol-4-yl)pyridin-2-amine] | 82 | > 200000
Fc1cccc(-c2cn(Cc3ccc(-c4nnc(C(F)F)o4)cc3)nn2)c1 [compound 248, 2-(difluoromethyl)-5-(4-((4-(3-fluorophenyl)-1H-1,2,3-triazol-1-yl)methyl)phenyl)-1,3,4-oxadiazole] | 275 | > 200000
Nc1cccc(-c2cn(Cc3c(F)cc(-c4nnc(C(F)F)o4)cc3F)nn2)c1 [compound 297, 3-(1-(4-(5-(difluoromethyl)-1,3,4-oxadiazol-2-yl)-2,6-difluorobenzyl)-1H-1,2,3-triazol-4-yl)aniline] | 37 | 65000
O=C(Nc1cccc(-c2cn(Cc3ncc(-c4nnc(C(F)F)o4)cc3F)nn2)c1)N1CCOCC1 [compound 336, N-[3-[1-[[5-[5-(difluoromethyl)-1,3,4-oxadiazol-2-yl]-3-fluoropyridin-2-yl]methyl]triazol-4-yl]phenyl]morpholine-4-carboxamide] | 57 | > 1e+06
